Data reported in patent US4920117A, “4,5,5a,6-tetrahydro-3H-isoxazolo(5,4,3-kl)acridines, pharmaceutical compositions and use” (Hoechst-Roussel Pharmaceuticals Inc., priority 1989, dated 1990).

Assays:
acetylcholinesterase = acetylcholinesterase (Homo sapiens, UniProt P22303); experiment: Cholinesterase inhibition assay (photometric method of Ellman et al.); type: biochemical; details: read-out: Cholinesterase Inhibition IC50 (molar conc.)
[1] = system: scopolamine induced memory deficit in mice; experiment: Dark Avoidance Assay (reversal of scopolamine induced memory deficit); type: in vivo; details: retest after 24 hours
Procedure: This utility can also be ascertained by determining the ability of these compounds to restore cholinergically deficient memory in the Dark Avoidance Assay. In this assay mice are tested for their ability to remember an unpleasant stimulus for a period of 24 hours. A mouse is placed in a chamber that contains a dark compartment; a strong incadescent light drives it to the dark compartment, where an electric shock is administered through metal plates on the floor. The animal is removed from the testing apparatus and tested again, 24 hours later, for the ability to remember the electric shock.
If scopolamine, an anticholinergic that is known to cause memory impairment, is administered before an animal's initial exposure to the test chamber, the animal re-enters the dark compartment shortly after being placed in the test chamber 24 hours later. This effect of scopolamine is blocked by an active test compound, resulting in a greater interval before re-entry into the dark compartment.
The results for an active compound are expressed as the percent of a group of animals in which the effect of scopolamine is blocked, as manifested by an increased interval between being placed in the test chamber and re-entering the dark compartment.

[2] = system: 2-phenyl-1,4-benzoquinone-induced writhing in mice; experiment: 2-phenyl-1,4-benzoquinone-induced writhing test in mice (analgesia); type: in vivo
From the text: The compounds of Formula I of the present invention are useful as analgesic agents due to their ability to alleviate pain in mammals. […] Exptl. Biol. Med., 95, 729 (1957)].

Sequence of acetylcholinesterase (P22303 32-614): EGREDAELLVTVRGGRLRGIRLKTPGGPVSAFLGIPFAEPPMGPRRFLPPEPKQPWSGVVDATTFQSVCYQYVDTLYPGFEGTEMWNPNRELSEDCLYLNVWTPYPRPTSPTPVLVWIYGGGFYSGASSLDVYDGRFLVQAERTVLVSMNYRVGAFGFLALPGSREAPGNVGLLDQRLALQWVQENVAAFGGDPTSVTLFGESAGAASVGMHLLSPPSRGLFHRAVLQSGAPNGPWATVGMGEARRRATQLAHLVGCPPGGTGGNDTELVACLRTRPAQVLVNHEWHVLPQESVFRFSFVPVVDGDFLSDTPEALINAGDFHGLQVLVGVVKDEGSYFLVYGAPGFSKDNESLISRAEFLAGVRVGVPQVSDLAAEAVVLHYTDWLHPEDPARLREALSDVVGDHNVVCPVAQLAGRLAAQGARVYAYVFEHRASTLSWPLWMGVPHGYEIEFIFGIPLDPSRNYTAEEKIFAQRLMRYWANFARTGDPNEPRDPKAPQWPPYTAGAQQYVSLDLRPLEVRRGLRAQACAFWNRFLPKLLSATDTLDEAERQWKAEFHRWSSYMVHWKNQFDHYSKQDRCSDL

Structure (SMILES): c1ccc2c(c1)NC1CCCc3onc-2c31 (stereo not shown) [4,5,5a,6-Tetrahydro-3H-isoxazolo[5,4,3-kl]acridine]
- IC50 (acetylcholinesterase): 13 µM

Structure (SMILES): c1ccc2c(c1)nc1c3c(onc32)CCC1 [4,5-Dihydro-3H-isoxazolo[5,4,3-kl]acridine]
- IC50 (acetylcholinesterase): 3.9 µM
- % of animals with scopolamine induced memory deficit reversal ([1]; 0.63 mg/kg body weight): 20%

Structure (SMILES): C=CCN1c2ccccc2-c2noc3c2C1CCC3 (stereo not shown) [6-(2-Propenyl)-4,5,5a,6-tetrahydro-3H-isoxazolo[5,4,3-kl]acridine]
- % of animals with scopolamine induced memory deficit reversal ([1]; 1.25 mg/kg body weight): 27%

Structure (SMILES): CCNC(=O)N1c2ccccc2-c2noc3c2C1CCC3 (stereo not shown) [6-Ethylaminocarbonyl-4,5,5a,6-tetrahydro-3H-isoxazolo[5,4,3-kl]acridine]
- Analgesic PQW % Inhibition of Writhing at 20 mg/kg., S.C. [2]: 44%

Structure (SMILES): C#CCNC(=O)N1c2ccccc2-c2noc3c2C1CCC3 (stereo not shown) [N-(2-Propynyl)-4,5,5a,6-tetrahydro-3H-isoxazolo-[5,4,3-kl]acridine-6-carboxamide]
- Analgesic PQW % Inhibition of Writhing at 20 mg/kg., S.C. [2]: 29%

Structure (SMILES): O=C(NCCN1CCOCC1)N1c2ccccc2-c2noc3c2C1CCC3 (stereo not shown) [N-[2-(4-Morpholinyl)ethyl]-4,5,5a,6-tetrahydro-3H-isoxazolo[5,4,3-kl]acridine-6-carboxamide]
- Analgesic PQW % Inhibition of Writhing at 20 mg/kg., S.C. [2]: 52%

Structure (SMILES): O=C(NCC#CCN1CCCC1)N1c2ccccc2-c2noc3c2C1CCC3 (stereo not shown) [N-[4-(1-Pyrrolidinyl)-2-butyn-1-yl]-4,5,5a,6-tetrahydro-3H-isoxazolo[5,4,3-kl]acridine-6-carboxamide]
- Analgesic PQW % Inhibition of Writhing at 20 mg/kg., S.C. [2]: 33%

Structure (SMILES): CNC(=O)Oc1ccc2c(c1)[C@]1(C)CCN(C)[C@@H]1N2C [Physostigmine, reference compound]
- % of animals with scopolamine induced memory deficit reversal ([1]; 0.31 mg/kg body weight, reference): 20%

Structure (SMILES): CCC(=O)O[C@](Cc1ccccc1)(c1ccccc1)[C@H](C)CN(C)C [Propoxyphene, reference compound]
- Analgesic PQW % Inhibition of Writhing ([2]; 3.9 mg/kg, s.c., reference compound): 50%
